Entries after “also recorded” stand apart in the source; their conditions may differ.
What was measured:
[1] = tested on: endometrial stromal cells (eSCs); experiment: Decidualization of menstrual effluent-derived eSCs induced by cAMP ± MPA, IGFBP1 and PRL by ELISA; format: cell-based, human; details: for potentiation of decidualization: comparators tested in the same eSC system as quercetin; for cAMP-induced decidualization (IGFBP1 and PRL production): quercetin 25 μM 4 hr before cAMP 0.5 mM for 48 hr, vs vehicle; for cAMP+MPA-induced decidualization (IGFBP1 and PRL production): control- and case-eSCs, quercetin 25 μM 4 hr before cAMP 0.5 mM + 0.1 μM MPA for 48 hr
Protocol: Methods: eSCs were isolated from menstrual effluent (ME) obtained from healthy controls and surgically diagnosed endometriosis cases. To induce decidualization, passage 2-3 eSCs DMEM 2% MSC-FBS were treated with dibutryl-cAMP (cAMP, 0.5 mM)±10^-7 M medroxyprogesterone acetate (MPA) for 48 hr. eSCs were pre-treated with vehicle or quercetin (25 μM) 4 hr prior to decidualization. PRL and IGFBP1 protein and mRNA in the culture supernatants and cells, respectively, were assessed by ELISA and RT-qPCR, respectively. Endometrial stromal cells (eSCs) were isolated and grown in DMEM 10% MSC-FBS, PSQ, normocin. Passage 2-3 eSCs were split into 96 well plates or 6-well plates in DMEM 10% MSC-FBS. After overnight culture in DMEM 2% MSC-FBS, decidualization of eSCs was induced after exposure to vehicle or 25 μM quercetin for 4 hrs, followed by 0.5 mM cAMP±0.1 μM MPA for 48 hrs. Decidualization was assessed by measuring IGFBP1 and/or PRL levels in the culture supernatants by ELISA. Progesterone sensitivity was also assessed by measuring progesterone-induced genes. Two sample t tests (unpaired or paired) were used to determine significance. Assessment of progesterone sensitive genes eSCs were treated vehicle or 25 μM quercetin for 4h followed by veh or 0.5 mM cAMP+0.1 uM MPA for 6h; RNA was isolated; and qPCR was performed for the P4 sensitives gene: HAND2, or other P4 target genes.
Roughly 30-50% of endometriosis patient experience infertility. The cause of endometriosis and its link to infertility is not completely understood. It has been shown that endometrial stromal cells (eSCs) from patients with endometriosis show decreased decidualization, a progesterone-driven process critical for implantation. Quercetin is a flavonoid with anti-inflammatory and immunomodulatory activities. […] In addition, quercetin improves infertility in patients with polycystic ovary syndrome (PCOS). We assessed the effect of quercetin on decidualization and progesterone sensitivity using eSCs. Methods: eSCs were isolated from menstrual effluent (ME) obtained from healthy controls and surgically diagnosed endometriosis cases. To induce decidualization, passage 2-3 eSCs were treated with dibutryl-cAMP (cAMP, 0.25-0.5 mM)±10^-7M medroxyprogesterone acetate (MPA) for 48 hr. eSCs were pre-treated with vehicle or quercetin (25 μM) 4 hr prior to decidualization. PRL and IGFBP1 protein and mRNA in the culture supernatants and cells, respectively, were assessed by ELISA and RT-qPCR, respectively. Progesterone sensitivity was also assessed by measuring progesterone-induced genes, PLZF and IHH. Two sample t tests (unpaired or paired) were used to determine significance.

[2] = tested on: endometrial stromal cells; experiment: SASP protein expression in endometrial stromal cells by western blotting; format: cell-based, human; details: quercetin 25 μM vs vehicle, DMEM 2% FBS, 2 days, confluent cells; normalised to GAPDH
Protocol: FIGS. 4A-4B: Quercetin-treatment of endometrial stromal cells reduces the senescence-associated secretory phenotype (SASP) and the expression SASP proteins. (4A) Treatment of confluent endometrial stromal cells with vehicle (Veh) vs. quercetin (25 μM, Q+) in DMEM 2% FBS for 2 days alters the expression of SASP proteins (or SASPs, IL-1β, TNF-membrane form [TNF-MF], TNF-soluble form [TNF-SF], MMP3, and Lamin B1 [LamB1*] vs. GAPDH [housekeeping protein for normalization]) by endometrial stromal cells, as determined by western blotting. Relative molecular weight markers (MWM) are shown on the left. (4B) Quantification of Veh-treated vs. Q-treated protein bands are shown in 4B. *Note: All proteins are positive SASPs (increased protein expression positively correlates with senescence), except LAMB1, which is lost with the senescence phenotype. Quercetin reduces senescence-associated secretory phenotype or SASP.

[3] = tested on: patients with polycystic ovary syndrome (PCOS); details: cited from earlier work
[4] = tested on: P4 target genes (HAND2, PLZF, IHH) in endometrial stromal cells; experiment: Progesterone (P4) target gene expression in eSCs by qPCR after quercetin pre-treatment; format: cell-based, human; details: control- and case-eSCs, p<0.05; for HAND2 mRNA expression (P4 target gene): quercetin 25 μM 4 h, then vehicle or 0.5 mM cAMP + 0.1 μM MPA 6 h, qPCR
Protocol: Endometrial stromal cells (eSCs) were isolated and grown in DMEM 10% MSC-FBS, PSQ, normocin. Passage 2-3 eSCs were split into 96 well plates or 6-well plates in DMEM 10% MSC-FBS. After overnight culture in DMEM 2% MSC-FBS, decidualization of eSCs was induced after exposure to vehicle or 25 μM quercetin for 4 hrs, followed by 0.5 mM cAMP±0.1 μM MPA for 48 hrs. […] Progesterone sensitivity was also assessed by measuring progesterone-induced genes. Two sample t tests (unpaired or paired) were used to determine significance. Assessment of progesterone sensitive genes eSCs were treated vehicle or 25 μM quercetin for 4h followed by veh or 0.5 mM cAMP+0.1 uM MPA for 6h; RNA was isolated; and qPCR was performed for the P4 sensitives gene: HAND2, or other P4 target genes. […] Progesterone sensitivity was also assessed by measuring progesterone-induced genes, PLZF and IHH.

endometrial implants = details: rat model of endometriosis; cited from earlier work
[5] = tested on: menstrual effluent-derived eSCs (ME-eSCs); experiment: MPA-stimulated gene expression in ME-eSCs of endometriosis cases and controls (qPCR, scRNA-seq); format: cell-based, human
Protocol: Methods: Low passage (p2-3) menstrual effluent-derived eSCs (ME-eSCs) obtained from women with confirmed endometriosis or healthy controls were stimulated with vehicle or MPA, a stable P4 analogue. qPCR and single cell RNA-seq (scRNA-seq, n=4 controls and 4 cases) were used to measure P4-induced gene expression and identify dysregulated pathways. Subcellular localization of PR isoforms and the PR chaperone protein, FKBP52, was assessed using immunofluorescent microscopy and western blotting of total, nuclear, and cytoplasmic preparations of ME-eSCs±MPA stimulation.

[6] = ME-eSCs from cases vs. controls, qPCR
[7] = scRNA-seq, n=4 controls and 4 cases

CC(C)Cc1ccc(C(C)C(=O)O)cc1 (stereo not shown) [ibuprofen, reference compound]
potentiation of decidualization [1]: did not potentiate decidualization

O=C(O)c1ccccc1O [SA, salicylic acid, reference compound]
potentiation of decidualization [1]: did not potentiate decidualization

O=c1c(O)c(-c2ccc(O)c(O)c2)oc2cc(O)cc(O)c12 [Quercetin, quercetin]
senescence-associated secretory phenotype (SASP) and expression of SASP proteins (IL-1β, TNF-MF, TNF-SF, MMP3, Lamin B1) [2]: reduces
cAMP-induced decidualization (IGFBP1 and PRL production) ([1]; case-eSCs (endometriosis), p<0.05): significantly enhanced; also recorded: increased
cAMP+MPA-induced decidualization (IGFBP1 and PRL production) ([1]; p<0.05): increased
cAMP+MPA-induced decidualization (IGFBP1 and PRL production) ([1]; p<0.05, listed as quercetin): significantly enhanced; also recorded: further enhances
cAMP-induced decidualization (IGFBP1 and PRL production) ([1]; control-eSCs, p<0.02): significantly enhanced; also recorded: increased
infertility in PCOS patients [3]: improves
HAND2 mRNA expression (P4 target gene) [4]: increases
HAND2 mRNA expression (P4 target gene) ([4]; listed as quercetin): significantly increased over vehicle
MPA-induced IHH mRNA expression ([4]; quercetin 25 μM vs vehicle): significantly increased over vehicle
MPA-induced PLZF mRNA expression ([4]; quercetin 25 μM vs vehicle): significantly increased over vehicle
anti-inflammatory effects (endometrial implants): exerted anti-inflammatory effects
growth of endometrial implants (endometrial implants): inhibited

CC(=O)O[C@]1(C(C)=O)CC[C@H]2[C@@H]3C[C@H](C)C4=CC(=O)CC[C@]4(C)[C@H]3CC[C@@]21C [MPA, medroxyprogesterone acetate]
MPA-stimulated IHH gene expression [5, 6]: significantly blunted
MPA-stimulated PLZF gene expression [5, 6]: significantly blunted
MPA-induced expression of CEBPD, DKK1, FABP4, MGP, and NNMT [5, 7]: significantly unregulated in controls only
MPA-induced expression of IGFBP5, MALAT1, DIO2, and KRT17 [5, 7]: significantly downregulated in controls only
potentiation of cAMP-induced decidualization by addition of MPA ([1]; control-eSCs, 0.1 μM MPA with cAMP, 48 hr): potentiates

From patent US20230295729A1, “METHODS FOR DETECTING AND TREATING PROGESTERONE-RESISTANT INFERTILITY” (The Feinstein Institutes for Medical Research, priority 2022, published 2023)
